Measurements: patent publication US8729034B2, “Pharmaceutical composition having virucidal and spermicidal activity” (priority 2007, dated 2014)
Entries after “also recorded” stand apart in the source; their conditions may differ.

How the values were obtained:
[1] = test system: female rabbits; assay: Contraceptive efficacy following intravaginal application in rabbits; format: in vivo, New Zealand Rabbits; conditions: intra-vaginal
Method: Healthy virgin, nulliparous female rabbits were primed with PMSG (200 i.u.; i.p.; 96 hrs prior to testing) to induce ovulation. Serial dilutions (2.5 mg/ml, 10 mg/ml, 25 mg/ml and 50 mg/ml) of Ac-B in KY-jelly was prepared to be used as test solutions and only KY-jelly was used for control group. Two ml of test/control solution was introduced 6-8 cm deep into the vagina of each rabbit with by the syringe with gavaging needle. The animal was held in supine position for about five minutes and then hand-mated by the selected proven bucks. The buck was allowed one-time mating. To ensure ovulation 100 i.u. of hCG was administered through the marginal ear vein of each participating doe. The vaginal lavage of the mated doe was examined under a microscope. The presence of spermatozoa in the lavage was considered as confirmed mating. The mated does were kept in separate cages to complete their gestation period and the number of delivered pups was recorded. The mean value of the pups was calculated to determine the contraceptive potential.

[2] = test system: human spermatozoa; assay: Motility revival test (Experiment A); format: cell-based; conditions: human spermatozoa treated at MEC, washed, incubated 30-60 minutes at 37 degree C
Method: Human spermatozoa, treated with Ac-B at MEC and BWW control set were washed twice in pre-equilibrated BWW medium, re-suspended in fresh BWW medium and again incubated in a CO2-incubator at 37 degree C. for 30-60 minutes. At the end of the incubation, wet-preparation of spermatozoa was made from each set on a glass slide. The preparation was examined under a phase contrast microscope (at ×400) to note reversal of motility in 10 fields-of-view.

[3] = test system: human sperm; assay: Modified Kremer-Test, cervical mucus penetration (Experiment B); format: cell-based; conditions: treated at MEC; 30 minutes at 37 degree C
Text: A modified Kremer-Test was used for assessment of cervical mucus penetrating capacity of treated sperm. A drop of human mid-cycle cervical mucus was placed on a slide and flattened by a cover slip (22 mm×22 mm). A drop of human sperm suspension treated with the test compounds (at MEC) was deposited at the side of the cover slip and in contact with the edge, the sperm suspension moved in under the cover slip by capillary force and a clear interface was obtained between the sperm suspension and the cervical mucus. The slide preparation was placed within a CO2 incubator at 37 degree C. for 30 minutes. Suitable control sets were prepared side by side. Each preparation was examined under a phase contrast microscope to observe the entry of spermatozoa into the cervical mucus zone.

[4] = test system: human spermatozoa; assay: Penetrak Test (bovine cervical mucus penetration test); format: cell-based; conditions: treated at MEC, washed; 1 hour; BWW control about 27(±3) mm
Method: The bovine cervical mucus penetration test was performed using the Penetrak kit (Serono Diagnostics, Allentown, Pa.).
Working suspension of human spermatozoa, prepared as above was treated in vitro with Ac-B at MEC, washed and resuspended in pre-equilibrated BWW medium. For the negative control set, same treatment was given to the sperms in BWW medium. Flat-capillary tubes filled with periovulatory mid-cycle bovine cervical mucus, in duplicate, were thawed at room temperature for 30 minutes and snapped at the red score mark above the mucus meniscus. The cut end was placed in tube containing treated/control washed sperm suspension and placed inside a CO2 incubator for 1 hour. The capillary tubes were then taken out, cleaned to remove superficially attached sperms, placed on a calibrated slide and examined by phase contrast microscopy (at ×400). The vanguard sperm was located and the distance (in mm) covered by it was measured to score the penetrating capacity of a sperm of the test sets.

[5] = test system: rat spermatozoa; assay: Hypo-osmotic swelling (HOS) test; format: cell-based
Method: A hypotonic solution was prepared by dissolving 0.735 g sodium citrate dehydrate and 1.351 g fructose in 100 ml distilled water (Milli Q). Aliquots of this solution kept frozen in −20 degree C. and thawed before use. For the test, 200 microliters of working suspension of rat spermatozoa was treated with one ml of Ac-B solution (at MEC) or BWW (as control) for 20 seconds followed by washing with BWW medium and centrifugation at 1000 rpm for 5 min. Finally the sperm pellet was resuspended in 0.1 ml BWW medium. One ml of prewarmed (37 degree C.) HOS solution was added to the suspension and incubated for one hour at 37 degree C. The incubated sperms were examined under a phase contrast microscope at ×400 magnification to observe the curling of tails. Two hundred spermatozoa were examined for each sample.

[6] = test system: Lactobacillus acidophilus; format: cell-based
Method: The media for culture of bacteria purchased from HI-MEDIA, India and spores of Lactobacillus acidophilus were obtained from pharmaceutical capsule marketed by Infer (India) Limited.
Sterile, molten (45-50 degree C.) Lactobacilli MRS agar was poured into sterile Petri dishes with (a) 1, 10, 100, 200, 500 mg of Ac-B (Experimental) and (b) without Ac-B (Control). The plates were placed within an incubator having 37 degree C. inside temperature and 5% CO2 in air for 72 hours. The number of colonies and their individual size were compared.

[7] = test system: Candida albicans; assay: Effect on in vitro culture of Candida albicans for 24 hours; format: cell-based; conditions: Ac-B 125 microgram per ml; PD agar
Method: Candida albicans spores were grown in vitro on Potato dextrose [PD] agar plates without (control) and with Ac-B at a concentration of 125 microgram per ml.

[8] = test system: Salmonella typhimurium TA100; assay: Bacterial reverse mutation assay (MUTA-CHROMOPLATE kit)
Text: Ac-B was examined for its ability to produce mutations/revert mutations in a bacterial reverse mutation assay using amino acid-requiring strain of Salmonella typhimurium (S. typhimurium) TA100 and the result was compared with a known mutagen (Na-azide). A commercial kit (The MUTA-CHROMOPLATE) from M/s Environmental Biodetection Products Inc. Ontario, Canada, was used. Suspensions of bacterial cells were exposed to the test substance in the presence and in the absence of an exogenous metabolic activation system. After 5 days of incubation, revertant colonies were detected by the change of colour from blue to yellow on solvent control plates. All yellow, partially yellow or turbid wells were scored as positive, while all purple wells were scored as negative. Number of positive wells for each plate was recorded, their number was counted and compared to that of spontaneous revertant colonies. The “Background” (i.e. no test material added) plate was used as reference for the level of spontaneous or background mutation of the assay organism. The statistical difference was determined using a table provided with the kit.
Score of mutagenicity as per the set criteria of Muta-Chromoplate test kit.

Acaciaside-B [Ac-B]
Mean numbers of pups delivered ([1]; 2 ml of 2.5 mg/ml Acaciaside-B in K-Y jelly (n = 5)): 3.4
Mean numbers of pups delivered ([1]; 2 ml of 10 mg/ml Acaciaside-B in K-Y jelly (n = 5)): 2.2
Mean numbers of pups delivered ([1]; 2 ml of 25 mg/ml Acaciaside-B in K-Y jelly (n = 5)): 0.2
Mean numbers of pups delivered ([1]; 2 ml of 50 mg/ml Acaciaside-B in K-Y jelly (n = 5)): 0.0
Revival of motility after washing and re-incubation [2]: no sign for revival of motility; also recorded: irreversible
Entry of treated spermatozoa into human cervical mucus [3]: none of them crossed into the interface
Penetration of vanguard sperm into bovine cervical mucus column [4]: capillary was devoid of sperm inside the mucus column
Response to HOS (HOS+), Hypo-osmotic Swelling Test ([5]; Ac-B at MEC for 20 seconds, 1 hour in HOS solution at 37 degree C): 0% (HOS+)
HOS reactivity (curling of tails) of treated spermatozoa ([5]; Ac-B treated): no HOS reactivity; also recorded: absence of curling
Dose level not affecting growth of Lactobacillus acidophilus [6]: ≥ 500 mg/mL
Size of Lactobacillus colonies grown in the presence of Ac-B [6]: comparable to that of control
Number of Candida albicans colonies, presence vs absence of Ac-B [7]: no significant difference
Sizes of individual Candida albicans colonies [7]: comparatively smaller
Overall mutagenicity result ([8]; Ames Test): non-mutagenic
No. of '+' wells (Muta-Chromoplate score) ([8]; Background = 20, Blank = 0): 18
